Surface tension liquid-gas data for two molecules are collected here from the NIST ThermoML archive (doi:10.1016/j.fluid.2011.11.011).

The data set in a line: an = ratio of the nth substance listed. Particulars: 275 K, Pendant drop shape.

± gives the expanded uncertainty stated by the source.

In general, surface tension liquid-gas refers to the force per length acting along the surface. As for `O` [water] + CCCCCCCCCCCCOS(=O)(=O)[O-].[Li+], the surface tension liquid-gas (a2 = 0) came out at 72.7 ± 2.3 mN/m.

Consider `CCCCCCCCCCCCOS(=O)(=O)[O-].[Li+]` [lithium dodecyl sulfate] + O, for which the surface tension liquid-gas by setting is: (a1 = 500) 56.6 ± 1.8 mN/m; (a1 = 1000) 53.1 ± 1.7 mN/m; (a1 = 2000) 41.2 ± 1.3 mN/m; (a1 = 2500) 38.9 ± 1.2 mN/m; (a1 = 3000) 37.3 ± 1.2 mN/m; (a1 = 3500) 37 ± 1.2 mN/m. Also, the surface tension liquid-gas is 36.7 ± 1.2 mN/m (a1 = 4000) and 36.7 ± 1.2 mN/m (a1 = 5000).
